Here are results for one compound from paper PMC9164233 (ACS Organic & Inorganic Au, 2022).

Common to all, as to test: Cell viability assay
The test system of assay [1] is HMLER CD24^low/CD44^high cells. The format is cell-based, human. To be noted: 72 h.
Assay [2] deals with HMLER CD24^high/CD44^low cells. It is filed as cell-based. Particulars: Homo sapiens, Epithelial cell, 72 h, read-out: Antiproliferative activity IC50, HMLER CD24^high/CD44^low.
Another assay has as its system MCF10A cells. The format is cell-based. Particulars: Homo sapiens, MCF-10A, 72 h, read-out: Antiproliferative activity IC50, MCF10A.

Turning to `CC[C@@H](C(=O)[C@@H](C)[C@@H](O)[C@H](C)[C@@H]1O[C@@H]([C@@H](CC)C(=O)O)CC[C@@H]1C)[C@H]1O[C@]2(C=C[C@@H](O)[C@]3(CC[C@@](C)([C@H]4CC[C@](O)(CC)[C@H](C)O4)O3)O2)[C@H](C)C[C@@H]1C` [Sal, salinomycin], in assay [1] (selectivity for the mesenchymal state), the “SI (HMLER) = IC50(HMLER CD24^high/CD44^low)/IC50(HMLER CD24^low/CD44^high)” value is 3.1. In addition, the IC50 came out at 1390 ± 100 nM in assay [1] (Homo sapiens, read-out: Antiproliferative activity IC50, HMLER CD24^low/CD44^high); 4.36 ± 0.5 µM in assay [2]; 1130 ± 140 nM in the assay on MCF10A cells.
